Measurements as given in paper PMC12153338, “Resistance to oxyimino-cephalosporins conferred by an alternative mechanism of hydrolysis by the Acinetobacter-derived cephalosporinase-33 (ADC-33), a class C β-lactamase present in carbapenem-resistant Acinetobacter baumannii (CRAb)” (mBio, 2025).
Converted amounts (≈) assume the structure as drawn. Where two headings read alike, the source gives them in different places.

Legend:
[1] = tested on: ADC-172 in DH10B Escherichia coli; assay: MIC by broth microdilution, ADC-172 in DH10B E. coli; assay type: cell-based; details: DH10B E. coli expressing ADC-172 (Adup) from pBCSK−, FDC in iron-depleted cation-adjusted MH broth, mode of triplicate
Description: (§1) Susceptibility testing to standard antibiotics was performed by broth microdilution according to 2024 Clinical and Laboratory Standards Institute (CLSI) guidelines ([38]). MICs for FDC were done in iron-depleted cation-adjusted Mueller-Hinton (MH) broth according to CLSI methods. All MICs were interpreted according to the 2024 CLSI guidelines ([38]). MICs are done in triplicate, and the mode MIC value is reported.
(§2) blaADC-7 pBCSK− was cloned and expressed in E. coli DH10B cells as previously described for MIC determinations ([3]). The pBCSK-non-inducible phagemid vector has a chloramphenicol resistance gene used to aid selection. All other blaADC variants were synthesized by GenScript according to the blaADC-7 pBCSK− strategy, cloning into the XbaI/BamHI sites of the pBCSK− vector ([5]).

[2] = tested on: DH10B alone; assay: MIC by broth microdilution, DH10B alone; assay type: cell-based; details: Escherichia coli; DH10B alone (control strain); FDC in iron-depleted cation-adjusted MH broth
Description: as §1, §2

[3] = tested on: ADC-217 in DH10B Escherichia coli; assay: MIC by broth microdilution, ADC-217 in DH10B E. coli; assay type: cell-based; details: DH10B E. coli expressing ADC-217 (non-Adup) from pBCSK−, FDC in iron-depleted cation-adjusted MH broth, mode of triplicate
Description: as §1, §2

[4] = tested on: ADC-30 in DH10B Escherichia coli; assay: MIC by broth microdilution, ADC-30 in DH10B E. coli; assay type: cell-based; details: DH10B E. coli expressing ADC-30 (non-Adup) from pBCSK−, FDC in iron-depleted cation-adjusted MH broth, mode of triplicate
Description: as §1, §2

[5] = tested on: ADC-33 in DH10B Escherichia coli; assay: MIC by broth microdilution, ADC-33 in DH10B E. coli; assay type: cell-based; details: DH10B E. coli expressing ADC-33 (Adup) from pBCSK−, FDC in iron-depleted cation-adjusted MH broth, mode of triplicate
Description: as §1, §2

[6] = tested on: ADC-143 in DH10B Escherichia coli; assay: MIC by broth microdilution, ADC-143 in DH10B E. coli; assay type: cell-based; details: DH10B E. coli expressing ADC-143 (non-Adup) from pBCSK−, FDC in iron-depleted cation-adjusted MH broth, mode of triplicate
Description: as §1, §2

[7] = tested on: ADC-7 in DH10B Escherichia coli; assay: MIC by broth microdilution, ADC-7 in DH10B E. coli; assay type: cell-based; details: DH10B E. coli expressing ADC-7 (non-Adup) from pBCSK−, FDC in iron-depleted cation-adjusted MH broth, mode of triplicate
Description: as §1, §2

[8] = tested on: ADC-219 in DH10B Escherichia coli; assay: MIC by broth microdilution, ADC-219 in DH10B E. coli; assay type: cell-based; details: DH10B E. coli expressing ADC-219 (Adup) from pBCSK−, FDC in iron-depleted cation-adjusted MH broth, mode of triplicate
Description: as §1, §2

[9] = tested on: DH10B Escherichia coli pBCSK− no insert; assay: MIC by broth microdilution, DH10B E. coli with pBCSK− no insert; assay type: cell-based; details: DH10B E. coli with pBCSK− no insert (control strain), FDC in iron-depleted cation-adjusted MH broth
Description: as §1, §2

[10] = tested on: ADC-218 in DH10B Escherichia coli; assay: MIC by broth microdilution, ADC-218 in DH10B E. coli; assay type: cell-based; details: DH10B E. coli expressing ADC-218 (Adup) from pBCSK−, FDC in iron-depleted cation-adjusted MH broth, mode of triplicate
Description: as §1, §2

[11] = tested on: ADC-73 in DH10B Escherichia coli; assay: MIC by broth microdilution, ADC-73 in DH10B E. coli; assay type: cell-based; details: DH10B E. coli expressing ADC-73 (non-Adup) from pBCSK−, FDC in iron-depleted cation-adjusted MH broth, mode of triplicate
Description: as §1, §2

[12] = target: T1, ADC-33 (Acinetobacter baumannii, UniProt A7Y407); details: hydrolysis by ADC-33; previously determined; cited from earlier work
[13] = target: ADC-172 (Acinetobacter baumannii, UniProt A7Y407, N321K); assay: Competition kinetics with nitrocefin (Ki), ADC-172; assay type: biochemical; details: 3 min pre-incubation, Cheng-Prusoff corrected
Description: (§3) For inhibition kinetics, utilizing NCF as a colorimetric substrate of ADCs, the inhibition constant (Ki) of CAZ and FDC with ADCs was determined using competition kinetics as previously described ([5]). After a 3 min pre-incubation of the enzyme (2 nM) with increasing concentration of the inhibitor, measurements of the initial velocities were performed with the addition of 100–200 µM NCF (twofold of the experimentally determined KM value). To determine the average velocities (v0), data from three experiments were fit to the followingequation: […]
(§4) where vu represents the NCF uninhibited velocity and IC50 represents the inhibitor concentration that results in a 50% reduction of vu. The Ki value was corrected for the NCF affinity (KM values for each ADC) with the Cheng-Prusoff ([5]) equation: […]
(§5) The standard error for Ki values was generated by factoring in the larger of the proportional standard errors for the individual IC50 value and the KM -NCF value.

[14] = target: T1, ADC-33; assay: Competition kinetics with nitrocefin (Ki), ADC-33; assay type: biochemical; details: 3 min pre-incubation, Cheng-Prusoff corrected
Description: as §3, §4, §5

[15] = target: T2, ADC-30 (Acinetobacter baumannii, UniProt A7XM81); assay: Timed electrospray ionization mass spectrometry of acylated adducts, ADC-30; assay type: binding; details: ADC-30, +468 Da adduct, at 1 h; enzyme:substrate 1:25
Description: (§6) β-Lactamase (5 µg) was incubated with substrate at a molar ratio of 1:25 (FDC, CAZ, meropenem [MEM]) in sterile 10 mM PBS, pH 7.4, for a total reaction volume of 20 µL (t = 30 s, 1 min, 15 min, 30 min, 1 h, 2 h, and 24 h). Reactions were quenched with 1% acetonitrile and 0.1% formic acid. Samples were analyzed using Q-TOF Waters Synapt-G2-Si and a Waters Acquity ultrapressure liquid chromatography BEH C18 column (1.7 µm […]; 2.1 × 50 mm). MassLynx v.4.1 was used to deconvolute protein peaks. The tune settings for each data run were as follows: capillary voltage at 3.5 kV, sampling cone at 35, source offset at 35, source temperature 100°C, desolvation temperature 500°C, cone gas at 100 L/h, desolvation gas at 800 L/h, and nebulizer bar at 6.0. Mobile phase A was 0.1% formic acid-water. Mobile phase B was 0.1% formic acid-acetonitrile. The mass accuracy for this system is ±5 Da. Mass spectrometry experiments were performed once over a range of time points.

[16] = target: T1, ADC-33; assay: Thermal denaturation by circular dichroism, ADC-33; assay type: binding; details: ADC-33 12 µM, 1 mM antibiotic, PBS pH 7.4
Description: (§7) For thermal denaturation, protein samples were monitored for helical content by circular dichroism in the far-UV region at 210 and 220 nm using a Jasco J-815 spectrometer (Easton, MD) with a Peltier-effect temperature controller, as previously described ([41]). Enzyme concentrations were 12 µM in phosphate-buffered saline (PBS) pH 7.4. The thermodynamic stability of apoADC-30 and ADC-33, and with 1 mM FDC and CAZ, was determined from equilibrium unfolding curves. With the assumption of a reversible two-state transition, we determined the Tm at the midpoint of equilibrium folding. Thermal denaturation experiments were done in duplicate under the same conditions, with each data point representing the average of three successive scans, and the Tm values are consistent with ±1°C variation.

[17] = target: T1, ADC-33; assay: Timed electrospray ionization mass spectrometry of acylated adducts, ADC-33; assay type: binding; details: ADC-33, incubation 30 s–1 h; enzyme:substrate 1:25
Description: as §6

[18] = target: ADC-217 (Acinetobacter baumannii, UniProt Q6DRA1, V286E, form not given); assay: Competition kinetics with nitrocefin (Ki), ADC-217; assay type: biochemical; details: 3 min pre-incubation, Cheng-Prusoff corrected
Description: as §3, §4, §5

[19] = tested on: CRAb isolates; details: certain CRAb isolates with elevated MICs; cited from earlier work
[20] = target: ADC-7 (Acinetobacter baumannii, UniProt Q6DRA1); assay: Competition kinetics with nitrocefin (Ki), ADC-7; assay type: biochemical; details: 3 min pre-incubation, Cheng-Prusoff corrected
Description: as §3, §4, §5

[21] = target: T2, ADC-30; assay: Competition kinetics with nitrocefin (Ki), ADC-30; assay type: biochemical; details: 3 min pre-incubation, Cheng-Prusoff corrected
Description: as §3, §4, §5

[22] = target: ADC-73 (Acinetobacter baumannii, UniProt A0A059ZDI2); assay: Competition kinetics with nitrocefin (Ki), ADC-73; assay type: biochemical; details: 3 min pre-incubation, Cheng-Prusoff corrected
Description: as §3, §4, §5

[23] = target: ADC-143 (Acinetobacter baumannii, UniProt Q6DRA1, Q144K, form not given); assay: Competition kinetics with nitrocefin (Ki), ADC-143; assay type: biochemical; details: 3 min pre-incubation, Cheng-Prusoff corrected
Description: as §3, §4, §5

[24] = target: T2, ADC-30; assay: Thermal denaturation by circular dichroism, ADC-30; assay type: binding; details: ADC-30 12 µM, 1 mM antibiotic, PBS pH 7.4; read-out: change of Tm of the β-lactamase on addition of antibiotic
Description: as §7

[25] = tested on: ADC variants in DH10B Escherichia coli; assay: MIC, statements across ADC variants in E. coli; assay type: cell-based
Description: as §1, §2

[26] = Escherichia coli, read-out: MIC

Compound	MIC [1, 26] [µg/mL]	MIC [2] [µg/mL]	MIC [3] [µg/mL]	MIC [4] [µg/mL]	MIC [5] [µg/mL]	MIC [6] [µg/mL]	MIC [7] [µg/mL]	MIC [8] [µg/mL]	MIC [9] [µg/mL]	MIC [10] [µg/mL]	MIC [11] [µg/mL]	further results
CC(=O)OCC1=C(C(=O)O)N2C(=O)[C@@H](NC(=O)Cc3cccs3)[C@H]2SC1 [CEF, cephalothin]	2050 (≈ 5170 µM)	16 (≈ 40.4 µM)	2050 (≈ 5170 µM)	4100 (≈ 10300 µM)	2050 (≈ 5170 µM)	2050 (≈ 5170 µM)	4100 (≈ 10300 µM)	1020 (≈ 2580 µM)	8 (≈ 20.2 µM)	2050 (≈ 5170 µM)	2050 (≈ 5170 µM)	–
CC(C)(O/N=C(\C(=O)N[C@@H]1C(=O)N2C(C(=O)[O-])=C(C[N+]3(CCNC(=O)c4ccc(O)c(O)c4Cl)CCCC3)CS[C@H]12)c1csc(N)n1)C(=O)O [FDC, cefiderocol]	1 (≈ 1.33 µM)	0.06 (≈ 0.0798 µM)	0.25 (≈ 0.332 µM)	–	0.5 (≈ 0.665 µM)	–	–	–	0.125 (≈ 0.166 µM)	0.5 (≈ 0.665 µM)	–	kcat [12]: 0.60 s⁻¹; Ki [13]: 3.26 ± 0.31 µM; MIC [1]: 1.0 µg/mL (≈ 1.33 µM); Ki [14]: 19.3 ± 1.46 µM; percentage of acylated adduct [15]: 70%; change of Tm of the β-lactamase on addition of antibiotic [16]: not observed; formation of stable acyl-enzyme adduct [17]: did not form a stable acyl-enzyme adduct; Ki [18]: 0.21 ± 0.025 µM; MIC [19]: ≥ 64 µg/mL; Ki [20]: 75 ± 5.32 µM; Ki [21]: 62.7 ± 3.95 µM; Ki [22]: 111 ± 9.7 µM; Ki [23]: 171 ± 27.7 µM; ΔTm at 1000 µM [24]: 2 °C
C[C@H]1[C@H](NC(=O)/C(=N\OC(C)(C)C(=O)O)c2csc(N)n2)C(=O)N1S(=O)(=O)O [ATM, aztreonam]	32 (≈ 73.5 µM)	0.25 (≈ 0.574 µM)	8 (≈ 18.4 µM)	8 (≈ 18.4 µM)	64 (≈ 147 µM)	16 (≈ 36.7 µM)	8 (≈ 18.4 µM)	32 (≈ 73.5 µM)	0.12 (≈ 0.276 µM)	256 (≈ 588 µM)	2 (≈ 4.59 µM)	–
Cn1c(N)c(NC(=O)NCCN)c[n+]1CC1=C(C(=O)O)N2C(=O)[C@@H](NC(=O)/C(=N\OC(C)(C)C(=O)[O-])c3nsc(N)n3)[C@H]2SC1 [TOL, ceftolozane]	512 (≈ 768 µM)	0.5 (≈ 0.75 µM)	16 (≈ 24 µM)	4 (≈ 6 µM)	512 (≈ 768 µM)	16 (≈ 24 µM)	8 (≈ 12 µM)	128 (≈ 192 µM)	0.5 (≈ 0.75 µM)	512 (≈ 768 µM)	2 (≈ 3 µM)	MIC [25]: ≥ 512 µg/mL
